Test results taken from patent US20240101570A1 (AMGEN INC., priority 2020, published 2024).

Experiments:
[1] = test system: HCT116 MTAP null cells; experiment: HCT116 MTAP null cell proliferation / viability (CellTiter-Glo, 6 days); assay type: cell-based; conditions: HCT116-MTAP null, 144 h, HCT116 MTAP null cells, 6 days, CellTiter-Glo; read-out: HCT-116 MTAP null IC50
In short: (§1)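 CellTiter-Glo luminescence, 6-day exposure, RPMI 1640 + 10% FBS. Dosing: 1:3 series (8-9 pts, top 1 or 10 μM) or 1:2 series (22 pts, top 10 or 50 μM), DMSO control. IC50 = 50% of control via curve fit.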

[2] = test system: HCT116 WT cells; experiment: HCT116 WT cell proliferation / viability (CellTiter-Glo, 6 days); assay type: cell-based; conditions: Homo sapiens, HCT-116, 144 h, HCT116 WT cells, 6 days, CellTiter-Glo; read-out: HCT-116 WT IC50
In short: as §1

IC50 [1]	IC50 [2]	SMILES
0.08 µM	2.97 µM	C[C@H]1OCc2c1c(N)nc1cnc(C(=O)N(Cc3ccc(C(F)(F)F)nn3)C3CCC3)cc21 (single isomer, unassigned) [Example 830]
2.57 µM	31.7 µM	CC(C)N(C(=O)c1ccc2nc(N)c3c(c2c1)COC3)[C@@H](C)c1ccc(C(F)(F)F)cn1 (single isomer, unassigned) [Example 831]
0.454 µM	12.6 µM	CC(C)N(C(=O)c1ccc2nc(N)c3c(c2c1)COC3)[C@H](C)c1ccc(C(F)(F)F)cn1 (single isomer, unassigned) [Example 832]
2.56 µM	27.2 µM	C[C@@H](c1ncc(F)cn1)N(CCOC(F)(F)F)C(=O)c1cc2c3c(c(N)nc2cc1F)COC3 (single isomer, unassigned) [Example 833]
0.817 µM	19.7 µM	C[C@H](c1ncc(F)cn1)N(CCOC(F)(F)F)C(=O)c1cc2c3c(c(N)nc2cc1F)COC3 (single isomer, unassigned) [Example 834]
0.126 µM	3.76 µM	CCN(C(=O)c1ccc2nc(N)c3c(c2c1)COC3)[C@H](C)c1ccc(C#N)cc1 (single isomer, unassigned) [Example 835]
3.64 µM	38.7 µM	CCN(C(=O)c1ccc2nc(N)c3c(c2c1)COC3)[C@@H](C)c1ccc(C#N)cc1 (single isomer, unassigned) [Example 836]
7.08 µM	> 50 µM	CCN(C(=O)c1ccc2nc(N)c3c(c2c1)COC3)[C@@H](C)c1ccc(C#N)cn1 (single isomer, unassigned) [Example 837]
0.161 µM	8.59 µM	CCN(C(=O)c1ccc2nc(N)c3c(c2c1)COC3)[C@H](C)c1ccc(C#N)cn1 (single isomer, unassigned) [Example 838]
0.213 µM	9.52 µM	CC(C)N(C(=O)c1ccc2nc(N)c3c(c2c1)CO[C@@H]3C)[C@H](C)c1ccc(C(F)(F)F)cn1 (single isomer, unassigned) [Example 839]
0.638 µM	22.9 µM	CC(C)N(C(=O)c1ccc2nc(N)c3c(c2c1)CO[C@@H]3C)[C@@H](C)c1ccc(C(F)(F)F)cn1 (single isomer, unassigned) [Example 840]
0.613 µM	11.7 µM	CC(C)N(C(=O)c1cc2c3c(c(N)nc2cc1F)COC3)[C@@H](C)c1ccc(C(F)(F)F)cn1 (single isomer, unassigned) [Example 841]
0.115 µM	3.27 µM	CC(C)N(C(=O)c1cc2c3c(c(N)nc2cc1F)COC3)[C@H](C)c1ccc(C(F)(F)F)cn1 (single isomer, unassigned) [Example 842]
3.35 µM	> 50 µM	CCN(C(=O)c1ccc2nc(N)c3c(c2c1)CO[C@@H]3C)[C@@H](C)c1ccc(C#N)cn1 (single isomer, unassigned) [Example 843]
0.105 µM	6.23 µM	CCN(C(=O)c1ccc2nc(N)c3c(c2c1)CO[C@@H]3C)[C@H](C)c1ccc(C#N)cn1 (single isomer, unassigned) [Example 844]
0.105 µM	2.24 µM	CC(C)N(C(=O)c1cc2c3c(c(N)nc2cc1Cl)COC3)[C@H](C)c1ccc(C(F)(F)F)cn1 (single isomer, unassigned) [Example 845]
0.212 µM	3.94 µM	CC(C)N(C(=O)c1cc2c3c(c(N)nc2cc1Cl)COC3)[C@@H](C)c1ccc(C(F)(F)F)cn1 (single isomer, unassigned) [Example 846]
1.86 µM	36.1 µM	CC(C)N(C(=O)c1cc2c3c(c(N)nc2cn1)COC3)[C@@H](C)c1ccc(C(F)(F)F)cn1 (single isomer, unassigned) [Example 847]
0.453 µM	11.5 µM	CC(C)N(C(=O)c1cc2c3c(c(N)nc2cn1)COC3)[C@H](C)c1ccc(C(F)(F)F)cn1 (single isomer, unassigned) [Example 848]
0.879 µM	24.4 µM	CC[C@H](c1ccc(C(F)(F)F)cn1)N(C)C(=O)c1cc2c3c(c(N)nc2cn1)COC3 (single isomer, unassigned) [Example 849]
